According to US20150346599A1, “PHOTO-DESTROYABLE QUENCHER AND ASSOCIATED PHOTORESIST COMPOSITION, AND DEVICE-FORMING METHOD” (Rohm and Haas Electronic Materials LLC, priority 2014, published 2015):

Experiments:
[1] = Water absorption (hygroscopicity): water weight gain of the solid; assay type: physicochemical; conditions: for Weight Gain relative to Reference (%): 1 millimole solid in open vial in 4 liter vessel with 100 milliliters exposed water, 18 hours, reference triphenylsulfonium camphorsulfonate; for Matter State After Exposure to Water: after 18 hours exposure to water vapour
Experimental: Compounds that absorb atmospheric moisture may cause inaccurate amount additions into formulations and are also difficult to handle. […] To quantify this characteristic, 1 millimole of each solid was placed in an open vial and enclosed in a 4 liter vessel containing 100 milliliters of exposed water. The weight of each vial was prerecorded and reweighed 18 hours later to determine the water weight gain.

[2] = Shelf life testing: compound stability in solution by 1H NMR peak integration; conditions: 100 millimolar in deuterated dimethylsulfoxide; for Compound Purity (%) 0 days / Compound Purity (%) 3 days / Compound Purity (%) 14 days: 1H NMR at 25° C.
Experimental: Compound stability was monitored by peak integration using ^1H NMR at 25° C. with relaxation delay set to 5 seconds on a 300 Megahertz Varian NMR spectrometer. Compound purity was calculated using the following formula: 100−((sum impurity peaks)/((total impurity peaks)+(total purity peaks))*100).

Compound	Weight Gain relative to Reference (%) [1] [%]	Matter State After Exposure to Water [1]	Matter State Before Exposure to Water [1]	Hygroscopicity (in words) [1]	Compound Purity (%) 0 days [2] [%]	Compound Purity (%) 3 days [2] [%]	Compound Purity (%) 14 days [2] [%]	Compound stability (in words) ([2]; up to 14 days)
5-(4-(tert-Butyl)phenyl)-5H-dibenzo[b,d]thiophen-5-ium 2,3,4,5,6-pentafluorophenolate [Example 5]	−29	Solid	Solid	–	–	–	–	–
5-Phenyl-5H-dibenzo[b,d]thiophen-5-ium 2,3,4,5,6-pentafluorophenolate [Example 2]	43	Solid	Solid	hygroscopic	–	–	–	–
5-Phenyl-5H-dibenzo[b,d]thiophen-5-ium 2,3,5,6-tetrafluorophenolate [Example 3]	29	Solid	Solid	–	–	–	–	–
5-Phenyl-5H-dibenzo[b,d]thiophen-5-ium 3,5-bis(trifluoromethyl)-phenolate [Example 4]	−14	Solid	Solid	–	–	–	–	–
Cc1cc(-[s+]2c3ccccc3c3ccccc32)cc(C)c1OCC(=O)OC1(C)C2CC3CC(C2)CC1C3.[O-]c1c(F)c(F)c(F)c(F)c1F [Example 6, 5-(3,5-Dimethyl-4-(2-(((1R,3S,5r,7r)-2-methyladamantant-2-yl)oxy)-2-oxoethoxy)phenyl)-5H-dibenzo[b,d]thiophen-5-ium 2,3,4,5,6-pentafluorophenolate]	−43	–	Solid	–	–	–	–	–
Triphenylsulfonium pentafluorophenolate [Example 1]	29	–	Solid	–	100	100	100	substantially more stable than triphenylsulfonium phenolate
triphenylsulfonium camphorsulfonate [reference compound]	–	Solid	Solid	–	100	100	100	–
